Key:
[1] = test system: NMDA receptors (tonic NMDA currents)
[2] = test system: maximal electroshock seizures in mice; details: mouse, in vivo; cited from earlier work
[3] = test system: PTZ-induced seizures in mice; details: mouse, in vivo; cited from earlier work
[4] = test system: 6 Hz (32 mA) seizures in mice; details: mouse, in vivo; cited from earlier work

**Q.** Which “effect on tonic NMDA currents” value [1] does the source give for `NC(CCCP(=O)(O)O)C(=O)O` (centres unmarked) [AP-5] here?
**A.** Its value is “fully inhibited”.

**Q.** Which results are given for `C=C(C)[C@@H]1CCC(C)=C[C@H]1c1c(O)cc(CCCCC)cc1O` [CBD, cannabidiol]?
**A.** ED50 (MES) [2]: 80 (65.5–96.0) mg/kg; ED50 (scPTZ) [3]: 120 (98.5–146) mg/kg

**Q.** Which “ED50 (6 Hz 32 mA)” value [4] does the source give for `CCC1(C)CC(=O)NC1=O` (centres unmarked) [ETX, ethosuximide] here?
**A.** Its value is greater than 200 mg/kg.

**Q.** What about the “ED50 (scPTZ)” value [3] of the same compound?
**A.** The value was 140.4 (115.8–170.2) mg/kg.

Reference: paper PMC9469208 (Journal of Medicinal Chemistry, 2022)
